Read-outs that look alike come from different tables or passages of the source.
Assays:
SKBR3 cells = assay: SKBR3 Cell Viability Assay (CellTiter Glo); type: cell-based; details: CellTiter Glo luminescence, read-out: MCL-1 CV SKBR3 EC50
Procedure: SKBR3 Cell Viability Assay Materials
SKBR3 Cells (ATCC HTB-30) were obtained from ATCC (Manassas, Va.) and cultured in McCoy 5A's medium (ATCC 30-2007)+10% fetal bovine serum (SH30071.03, HyClone, Pittsburgh, Pa.) plus 1× Penicillin-Streptomycin L-glutamine (Corning 30-009-C1, Corning, N.Y.)).
The cell viability assay was conducted in a 384-well tissue culture plate (Grenier 781086, Monroe, N.C.) in a total volume of 70 μL. Test compounds were prepared in 1,000×, serially diluted, and pre-spotted into 384-well tissue culture plate by Echo 555 Liquid Handler (Labcyte Inc., San Jose, Calif.). Seventy μl of 6,000 SKBR3 cells were dispensed into each well of the plate and incubated at 37° C. with 5% CO2 for 72 hours. At the end of incubation, 2× CellTiter Glo (CTG) reagents (1 part buffer with 2 parts substrate) (Promega, Madison, Wis.) were prepared, and the plate and the reagent were equilibrated to room temperature for 30 minutes. CTG reagent was added to each plate by Biomek FX at 20 μL/well with 5 times pipetting and mixing to induce cell lysis. Luminescence was read by Envision multimode reader (PerkinElmer). […] Percent inhibition was calculated as followed: % Inhibition=100%*(Well−Neg)/(Pos−Neg) Neg, negative control, DMSO Pos, positive control, 10 μM Puromycin

[1] = molecular target: MCL-1/Bim interaction (recombinant human MCL-1 protein, residues 171-327; biotinylated human Bim peptide, residues 51-76) (Homo sapiens (Human), UniProt Q07820); assay: MCL-1/Bim Binding AlphaLISA Assay; details: 0.0625 nM 6xHis-Mcl-1 (171-327), 0.0625 nM biotinylated-Bim peptide
Sequence of MCL-1/Bim interaction (recombinant human MCL-1 protein, residues 171-327; biotinylated human Bim peptide, residues 51-76) (Q07820 171-327): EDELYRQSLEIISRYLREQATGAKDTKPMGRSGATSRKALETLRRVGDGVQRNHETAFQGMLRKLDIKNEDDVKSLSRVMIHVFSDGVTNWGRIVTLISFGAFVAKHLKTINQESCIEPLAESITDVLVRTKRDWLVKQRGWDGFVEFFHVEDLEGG
Procedure: MCL-1/Bim Binding AlphaLISA Assay.
Inhibition of the MCL-1 and Bim interaction was measured in the following AlphaLISA assay.
Recombinant human MCL-1 protein (C-terminal 6×His Tagged Mcl-1 containing residues 171-327) was generated at Gilead Sciences, Inc. (Foster City, Calif.). A biotinylated peptide derived from human Bim (residues 51-76) was purchased from CPC Scientific (Sunnyvale, Calif.). (CPC 834113). AlphaLISA anti-6His-acceptor beads (AL128R), AlphaScreen Streptavidin donor beads (6760002B), and Proxiplate-384 Plus (6008289) were purchased from PerkinElmer.
The AlphaLISA assay was performed in a 384-well Proxiplate in a total volume of […]. The reaction mixture contained 0.0625 nM 6×His-Mcl-1 (171-327), 0.0625 nM biotinylated-Bim peptide, 10 μg/mL AlphaLISA anti-6×His-AlphaLISA acceptor beads, […] AlphaScreen streptavidin donor beads, and serially diluted test compounds in the binding buffer (20 mM Hepes, pH 7.5 (Teknova H1035); 150 mM NaCl (Promega V4221); 0.002% Brij 35 (Thermo Scientific 20150); 1 mM Dithiothreitol (DTT) Solution (Affymetrix 70726); 0.01% BSA (BioLabs B9000S)). 1,000×test compounds were pre-spotted onto 384-well Proxiplate (Labcyte Echo) by Echo 555 Liquid Handler (Labcyte Inc., San Jose, Calif.) followed by incubation of 5 μl Mcl-1(171-327) for 1 hour. Then 5 μL Bim (51-76) was added and incubated for 2 hours. Five μL AlphaLISA anti-6His-AlphaLISA acceptor beads were then added for 1 hour followed by addition of 5 μL AlphaScreen streptavidin donor beads for 1 hour. The reaction plates were then read on an Envision multimode reader (PerkinElmer) using AlphaScreen settings. […] Percent inhibition was calculated as shown below: % Inhibition=100%*(Well−Neg)/(Pos−Neg) Neg: negative control, DMSO Pos: positive control, no Mcl-1 protein, no biotinylated-Bim peptide

CO[C@H]1/C=C/C[C@H](C)C[S@@](=O)(NC(=O)c2cc(C)sn2)=NC(=O)c2ccc3c(c2)N(C[C@@H]2CC[C@H]21)C[C@@]1(CCCc2cc(Cl)ccc21)CO3 [Example 444]
EC50 (SKBR3 cells; Homo sapiens, SK-BR-3, 72 h): 172 nM
IC50 [1]: 0.101 nM

COC[C@H]1Cn2cc(C(=O)N[S@@]3(=O)=NC(=O)c4ccc5c(c4)N(C[C@@H]4CC[C@H]4[C@@H](OC)/C=C/C[C@H](C)C3)C[C@@]3(CCCc4cc(Cl)ccc43)CO5)cc2CO1 [Example 214]
EC50 (SKBR3 cells; Homo sapiens, SK-BR-3, 72 h): 55.9 nM
IC50 [1]: 0.185 nM

CCC(=O)N[S@@]1(=O)=NC(=O)c2ccc3c(c2)N(C[C@@H]2CC[C@H]2[C@@H](OCCN2CCOCC2)/C=C/CCC1)C[C@@]1(CCCc2cc(Cl)ccc21)CO3 (single isomer, unassigned) [Example 67]
EC50 (SKBR3 cells; Homo sapiens, SK-BR-3, 72 h): 1040 nM
IC50 [1]: 1.2 nM

CO[C@H]1/C=C/CCC[S@@](=O)(NC(=O)[C@@H]2C[C@H]2c2ccnn2C)=NC(=O)c2ccc3c(c2)N(C[C@@H]2CC[C@H]21)C[C@@]1(CCCc2cc(Cl)ccc21)CO3 [Example 83]
EC50 (SKBR3 cells; 72 hours): 460 nM
IC50 [1]: 0.1 nM

CO[C@H]1/C=C/C[C@H](C)C[S@@](=O)(NC(=O)c2cn(C)nc2Cl)=NC(=O)c2ccc3c(c2)N(C[C@@H]2CC[C@H]21)C[C@@]1(CCCc2cc(Cl)ccc21)CO3 [Example 126]
EC50 (SKBR3 cells; Homo sapiens, SK-BR-3, 72 h): 123 nM
IC50 [1]: 0.099 nM

CO[C@H]1/C=C/C[C@H](C)C[S@@](=O)(NC(=O)[C@H](O)Cc2ccccc2)=NC(=O)c2ccc3c(c2)N(C[C@@H]2CC[C@H]21)C[C@@]1(CCCc2cc(Cl)ccc21)CO3 [Example 122]
EC50 (SKBR3 cells; Homo sapiens, SK-BR-3, 72 h): 113 nM
IC50 [1]: 0.161 nM

CO[C@H]1/C=C/C[C@H](C)C[S@@](=O)(NC(=O)c2cc(C(=O)N(C)C)n(C)c2)=NC(=O)c2ccc3c(c2)N(C[C@@H]2CC[C@H]21)C[C@@]1(CCCc2cc(Cl)ccc21)CO3 [Example 332]
EC50 (SKBR3 cells; Homo sapiens, SK-BR-3, 72 h): 51.1 nM
IC50 [1]: 0.071 nM

CO[C@H]1/C=C/CCC[S@](=O)(NC(=O)[C@@H]2C[C@H]2c2ccnn2C)=NC(=O)c2ccc3c(c2)N(C[C@@H]2CC[C@H]21)C[C@@]1(CCCc2cc(Cl)ccc21)CO3 [Example 84]
EC50 (SKBR3 cells; 72 hours): 783 nM
IC50 [1]: 0.1 nM

COc1nn(C)cc1C(=O)N[S@@]1(=O)=NC(=O)c2ccc3c(c2)N(C[C@@H]2CC[C@H]2[C@@H](OC)/C=C/[C@H](Oc2cnccn2)[C@H](C)C1)C[C@@]1(CCCc2cc(Cl)ccc21)CO3 [Example 288]
EC50 (SKBR3 cells; Homo sapiens, SK-BR-3, 72 h): 170 nM
IC50 [1]: 0.144 nM

CO[C@H]1/C=C/C[C@H](C)C[S@@](=O)(NC(=O)c2cc(CN3CCN(C(C)C)[C@H](C)C3)n(C)c2)=NC(=O)c2ccc3c(c2)N(C[C@@H]2CC[C@H]21)C[C@@]1(CCCc2cc(Cl)ccc21)CO3 [Example 284]
EC50 (SKBR3 cells; Homo sapiens, SK-BR-3, 72 h): 54.7 nM
IC50 [1]: 0.061 nM

COCCn1cc(C(=O)N[S@@]2(=O)=NC(=O)c3ccc4c(c3)N(C[C@@H]3CC[C@H]3[C@@H](OC)/C=C/C[C@H](C)C2)C[C@@]2(CCCc3cc(Cl)ccc32)CO4)cn1 [Example 120]
EC50 (SKBR3 cells; Homo sapiens, SK-BR-3, 72 h): 106 nM
IC50 [1]: 0.167 nM

CO[C@H]1/C=C\C[C@H](C)[C@@H](C)[S@@](=O)(NC(=O)COC2CCOCC2)=NC(=O)c2ccc3c(c2)N(C[C@@H]2CC[C@H]21)C[C@@]1(CCCc2cc(Cl)ccc21)CO3 [Example 406]
EC50 (SKBR3 cells; Homo sapiens, SK-BR-3, 72 h): 332 nM
IC50 [1]: 0.103 nM

CO[C@H]1/C=C/C[C@H](C)C[S@@](=O)(NC(=O)CCc2cnn(C)c2)=NC(=O)c2ccc3c(c2)N(C[C@@H]2CC[C@H]21)C[C@@]1(CCCc2cc(Cl)ccc21)CO3 [Example 142]
EC50 (SKBR3 cells; Homo sapiens, SK-BR-3, 72 h): 416 nM
IC50 [1]: 0.097 nM

CO[C@H]1CCN(C(=O)N[S@@]2(=O)=NC(=O)c3ccc4c(c3)N(C[C@@H]3CC[C@H]3[C@@H](OC)/C=C/C[C@H](C)C2)C[C@@]2(CCCc3cc(Cl)ccc32)CO4)C1 [Example 347]
EC50 (SKBR3 cells; Homo sapiens, SK-BR-3, 72 h): 79.8 nM
IC50 [1]: 0.084 nM

CO[C@H]1/C=C/CCC[S@@](=O)(NC(=O)COC2CCN(C(=O)N(C)C)CC2)=NC(=O)c2ccc3c(c2)N(C[C@@H]2CC[C@H]21)C[C@@]1(CCCc2cc(Cl)ccc21)CO3 [Example 417]
EC50 (SKBR3 cells; Homo sapiens, SK-BR-3, 72 h): 403 nM
IC50 [1]: 0.092 nM

COc1nn(C)cc1C(=O)N[S@@]1(=O)=NC(=O)c2ccc3c(c2)N(C[C@@H]2CC[C@H]2[C@@H](OC(=O)[C@@H](N)C(C)C)/C=C/C[C@H](C)[C@H]1C)C[C@@]1(CCCc2cc(Cl)ccc21)CO3 [Example 254]
EC50 (SKBR3 cells; Homo sapiens, SK-BR-3, 72 h): 155 nM
IC50 [1]: 0.126 nM

CO[C@H]1/C=C/CCC[S@@](=O)(NC(=O)COC2CCOCC2)=NC(=O)c2ccc3c(c2)N(C[C@@H]2CC[C@H]21)C[C@@]1(CCCc2cc(Cl)ccc21)CO3 [Example 105]
EC50 (SKBR3 cells; Homo sapiens, SK-BR-3, 72 h): 351 nM
IC50 [1]: 0.1 nM

CCC(=O)N[S@]1(=O)=NC(=O)c2ccc3c(c2)N(C[C@@H]2CC[C@H]2[C@@H](OC)/C=C/CC[C@H]1CC)C[C@@]1(CCCc2cc(Cl)ccc21)CO3 [Example 64]
EC50 (SKBR3 cells; 72 hours): 5830 nM
IC50 [1]: 5.2 nM

COC(=O)[C@]1(C)C[C@H](NC(=O)N[S@@]2(=O)=NC(=O)c3ccc4c(c3)N(C[C@@H]3CC[C@H]3[C@@H](OC)/C=C/C[C@H](C)C2)C[C@@]2(CCCc3cc(Cl)ccc32)CO4)C1 [Example 305]
EC50 (SKBR3 cells; Homo sapiens, SK-BR-3, 72 h): 140 nM
IC50 [1]: 0.088 nM

C[C@@H]1[C@@H](C)C/C=C/[C@H](O)[C@@H]2CC[C@H]2CN2C[C@@]3(CCCc4cc(Cl)ccc43)COc3ccc(cc32)C(=O)N=[S@]1(=O)NC(=O)c1cc2n(c1)C[C@H](CO)OC2 [Example 329]
EC50 (SKBR3 cells; Homo sapiens, SK-BR-3, 72 h): 57 nM
IC50 [1]: 0.087 nM

COC[C@H]1C[C@H]1NC(=O)N[S@@]1(=O)=NC(=O)c2ccc3c(c2)N(C[C@@H]2CC[C@H]2[C@@H](OC)/C=C/C[C@H](C)C1)C[C@@]1(CCCc2cc(Cl)ccc21)CO3 [Example 316]
EC50 (SKBR3 cells; 72 hours): 116 nM
IC50 [1]: 0.056 nM

COc1nn(C)cc1C(=O)N[S@@]1(=O)=NC(=O)c2ccc3c(c2)N(C[C@@H]2CC[C@H]2[C@@H](O)/C=C/C[C@H](C)C1)C[C@@]1(CCCc2cc(Cl)ccc21)CO3 [Example 223]
EC50 (SKBR3 cells; Homo sapiens, SK-BR-3, 72 h): 37.3 nM
IC50 [1]: 0.039 nM

CCC(=O)N[S@]1(=O)=NC(=O)c2ccc3c(c2)N(C[C@@H]2CC[C@H]2[C@@H](OCCN2CCOCC2)/C=C/CCC1)C[C@@]1(CCCc2cc(Cl)ccc21)CO3 [Example 66]
EC50 (SKBR3 cells; 72 hours): 5830 nM
IC50 [1]: 2.7 nM

CO[C@H]1/C=C/C[C@H](C)C[S@@](=O)(NC(=O)N[C@H]2CCOC2)=NC(=O)c2ccc3c(c2)N(C[C@@H]2CC[C@H]21)C[C@@]1(CCCc2cc(Cl)ccc21)CO3 [Example 112]
EC50 (SKBR3 cells; Homo sapiens, SK-BR-3, 72 h): 73.2 nM
IC50 [1]: 0.047 nM

CNC1CN(C(=O)N[S@@]2(=O)=NC(=O)c3ccc4c(c3)N(C[C@@H]3CC[C@H]3[C@@H](OC)/C=C/C[C@H](C)C2)C[C@@]2(CCCc3cc(Cl)ccc32)CO4)C1 [Example 294]
EC50 (SKBR3 cells; Homo sapiens, SK-BR-3, 72 h): 260 nM
IC50 [1]: 0.129 nM

CO[C@H]1/C=C/CCC[S@@](=O)(NC(=O)CCc2scnc2C)=NC(=O)c2ccc3c(c2)N(C[C@@H]2CC[C@H]21)C[C@@]1(CCCc2cc(Cl)ccc21)CO3 [Example 93]
EC50 (SKBR3 cells; Homo sapiens, SK-BR-3, 72 h): 4820 nM
IC50 [1]: 51 nM

CO[C@H]1/C=C/C[C@H](C)C[S@@](=O)(NC(=O)COC2CC2)=NC(=O)c2ccc3c(c2)N(C[C@@H]2CC[C@H]21)C[C@@]1(CCCc2cc(Cl)ccc21)CO3 [Example 445]
EC50 (SKBR3 cells; Homo sapiens, SK-BR-3, 72 h): 210 nM
IC50 [1]: 0.091 nM

COc1nn(C)cc1C(=O)N[S@@]1(=O)=NC(=O)c2ccc3c(c2)N(C[C@@H]2CC[C@H]2[C@@H](OC)/C=C/[C@H](OC(F)F)[C@H](C)C1)C[C@@]1(CCCc2cc(Cl)ccc21)CO3 [Example 400]
EC50 (SKBR3 cells; Homo sapiens, SK-BR-3, 72 h): 530 nM
IC50 [1]: 0.058 nM

CO[C@H]1/C=C/C[C@H](C)C[S@@](=O)(NC(=O)c2cc3c([nH]2)CCOC3)=NC(=O)c2ccc3c(c2)N(C[C@@H]2CC[C@H]21)C[C@@]1(CCCc2cc(Cl)ccc21)CO3 [Example 158]
EC50 (SKBR3 cells; Homo sapiens, SK-BR-3, 72 h): 47.4 nM
IC50 [1]: 0.135 nM

Source: patent US10703733B2, “MCL-1 inhibitors” (Gilead Sciences, Inc., priority 2018, dated 2020)
